The results in this text go back to paper PMC12055592, “Post-symptomatic NLRP3 inhibition rescues cognitive impairment and mitigates amyloid and tau driven neurodegeneration” (Npj Dementia, 2025).

In assay [1] the test system is 5XFAD/Rubicon KO mice. Briefly: Plasma neurofilament light chain (NfL) ELISA in 5XFAD/Rubicon KO mice. The format is in vivo, mouse. The note with it: 20 mg/kg, 9 weeks PO QD; lack of a dose-response. The method, then: (§1) 5XFAD/Rubicon KO mice received vehicle (0.5% w/v methylcellulose/0.1% w/v Tween® 80 in water) or VEN-02XX (0.01, 1, or 20 mg/kg) every day by oral gastric gavage for 9 weeks.
Blood was collected via submandibular puncture. Briefly, mice were immobilized, and a small puncture was made in the submandibular vein using a sterile 28 g lancet. Blood was collected using a capillary tube coated in 0.5 M EDTA into separation tubes for plasma as indicated. Blood was subsequently centrifuged for 15 min at 13,000 rpm in a refrigerated centrifuge. Plasma was harvested as indicated and was either used immediately or stored at −80 °C until use.
Brain tissue was homogenized in PBS, pH 7.4 with 1X Halt™ protease inhibitor cocktail (Thermo Fisher Scientific, Waltham, MA) using a Bead Ruptor homogenizer (Omni International, Kennesaw, GA). Homogenates were clarified by centrifugation at 10,000 × g for 10 min. The crude homogenate was used for quantification of VEN-02XX levels, as described below. Total protein concentrations were quantified from clarified supernatants in a Pierce BCA protein assay (Thermo Fisher Scientific). Cytokine and chemokine levels were quantified using an electrochemiluminescence immunoassay (ECLIA) for IL-1β (total), TNFα, IL-6 and IP-10 (U-PLEX Custom Biomarker Group 1 (mouse) assay, Meso Scale Discovery, Rockville, MD) following the manufacturer’s instructions. […]

Assay [2] has as its system 5XFAD/Rubicon KO mice. As to the kind of experiment: Novel object recognition in 5XFAD/Rubicon KO mice. It counts as in vivo, mouse. The method, then:
as §1
Mice were acclimated to the testing room for 48 h. For habituation, mice were allowed to explore an open-field box (50 cm × 50 cm) for 15 min per day over the course of 48 h. Mice were then exposed to two identical objects for 10 min on the day of testing. One hour later, a novel object was introduced, and mice were allowed to explore for 5 min during the test phase. The time spent exploring each object was quantified using AnyMaze video tracking software using the manufacturer define NOR protocol. Novel object preference (%) and the discrimination index (time with novel)/(novel + familiar) * 100) were calculated for each mouse using AnyMaze software.

Assay [3] deals with 5XFAD/Rubicon KO mice. As to the kind of experiment: Spontaneous alternation (Y-maze) in 5XFAD/Rubicon KO mice. The format is in vivo, mouse. The method, then:
as §1
Spontaneous alternation was measured in a standard Y-maze setup. Mice were acclimated to the testing room for 48 h. In each 5-min trial, percent spontaneous alternation was measured as […][32]. Any mouse with less than 5 arm entries during the 5 min trial was excluded from the analysis.

In assay [4] the test system is NLRP3 inflammasome, IL-18 in iPSC-derived microglia. As to the kind of experiment: iPSC-derived microglia in vitro assay, secreted IL-18. Conditions: geometric mean, n = 5. The format is cell-based. The procedure:
iPSC-derived microglia (BX-0900, BrainXell, Madison, WI) were thawed and recovered as per the supplier’s instructions. Briefly, viable cells were counted post-thaw using Trypan Blue, 0.4% (Thermo Fisher Scientific) and 25,000 cells were seeded on poly-d-lysine coated 96-well plates in DMEM-F/12 medium (Thermo Fisher Scientific) supplemented with 1X B-27 supplement (Thermo Fisher Scientific), 1X N-2 supplement (Thermo Fisher Scientific), 1X Non-essential amino acids (Thermo Fisher Scientific), 1X Chemically defined lipid mix (Thermo Fisher Scientific), 1 mM GlutaMax (Thermo Fisher Scientific), 0.2 mM Ascorbic Acid (Millipore), 100 ng/mL IL-34 (PeproTech, Cranbury, NJ), 2 ng/mL TGF-β1 (PeproTech) and 20 ng/mL M-CSF (PeproTech). Fresh media was added 3 days after seeding, half of which was replenished with fresh media 6 days following seeding. The assay was performed 7 days after cells were seeded in 96-well plates. Two assay protocol variations were performed: cells were either pre-treated with VEN-02XX to block NLRP3 inflammasome formation and then primed with LPS (Fig. 1, D. Compound added before LPS priming) or were primed with LPS and then treated with VEN-02XX (Fig. 1, D. Compound added after LPS priming). For compound treatment, cells were treated with VEN-02XX for 1 h (top concentration 100 µM; 3-fold titration) to block NLRP3 inflammasome formation. […]

The subject of assay [5] is TNFα in iPSC-derived microglia. Briefly: iPSC-derived microglia in vitro assay, secreted TNFα (specificity). It counts as cell-based. Conditions: for IC50: Microglia. The procedure: iPSC-derived microglia (BX-0900, BrainXell, Madison, WI) were thawed and recovered as per the supplier’s instructions. Briefly, viable cells were counted post-thaw using Trypan Blue, 0.4% (Thermo Fisher Scientific) and 25,000 cells were seeded on poly-d-lysine coated 96-well plates in DMEM-F/12 medium (Thermo Fisher Scientific) supplemented with 1X B-27 supplement (Thermo Fisher Scientific), 1X N-2 supplement (Thermo Fisher Scientific), 1X Non-essential amino acids (Thermo Fisher Scientific), 1X Chemically defined lipid mix (Thermo Fisher Scientific), 1 mM GlutaMax (Thermo Fisher Scientific), 0.2 mM Ascorbic Acid (Millipore), 100 ng/mL IL-34 (PeproTech, Cranbury, NJ), 2 ng/mL TGF-β1 (PeproTech) and 20 ng/mL M-CSF (PeproTech). Fresh media was added 3 days after seeding, half of which was replenished with fresh media 6 days following seeding. The assay was performed 7 days after cells were seeded in 96-well plates. Two assay protocol variations were performed: cells were either pre-treated with VEN-02XX to block NLRP3 inflammasome formation and then primed with LPS (Fig. 1, D. Compound added before LPS priming) or were primed with LPS and then treated with VEN-02XX (Fig. 1, D. Compound added after LPS priming). For compound treatment, cells were treated with VEN-02XX for 1 h (top concentration 100 µM; 3-fold titration) to block NLRP3 inflammasome formation. For LPS priming, cells were primed with 100 ng/mL LPS (E.coli O26:B6, Millipore) for 4 h. At the end of either protocol, cells were stimulated with 10 uM Nigericin (Millipore) for 1 h, after which conditioned media was collected for analysis of secreted IL-1β, IL-18 and TNFα in an electrochemiluminescence immunoassay (Mesoscale Discovery).

The test system of assay [6] is NLRP3 inflammasome, IL-1β release in mouse whole blood. As to the kind of experiment: Mouse whole-blood in vitro assay (LPS, ATP, secreted IL-1β). It counts as cell-based. The procedure: Blood was collected from CD1 female mice in lithium-Heparin tubes (Sarstedt, Numbrecht, Germany). Freshly collected blood was distributed in each well of a 96-well round-bottom cell culture plate (Corning Life Sciences, Tewksbury, MA). Blood was primed with 1 µg/ml Lipopolysaccharide (LPS) (E. coli O26:B6, Millipore, Burlington, MA) for 4.5 h, incubated at 37 °C with 5% CO2. Following LPS priming, blood was incubated with VEN-02XX pre-diluted in HBSS (Thermo Fisher Scientific, Waltham, MA) with 2% DMSO, for 30 min (top concentration 25 µM; 3-fold titration). Following drug incubation, blood was stimulated with 5 mM ATP (Millipore) for an additional 30 min at 37 °C with 5% CO2 under continuous shaking (450 RPM), after which conditioned media was collected for analysis of secreted IL-1β in an electrochemiluminescence immunoassay (Mesoscale Discovery).

[7] abbreviates: 9 weeks, 0.01, 1, 20 mg/kg PO QD vs vehicle.
The mark [8] stands for this setting: compound added after LPS priming.
The mark [9] stands for this setting: compound added before LPS priming.

Turning to `CC(C)(O)CNc1nnc(-c2ccc(Cl)cc2C(F)(F)F)c2ccncc12` [VEN-02XX], the “plasma NfL levels” value in the assay on 5XFAD/Rubicon KO mice [1] is given as “significantly reduced”. The novel object recognition result with 5XFAD/Rubicon KO mice [2] (setting [7]) was “striking dose-dependent improvement”. Moreover, the “novel object recognition, learning and memory” value with 5XFAD/Rubicon KO mice [2] (9 weeks, 20 mg/kg PO QD) was “restoration of learning and memory to near wild type control levels for most animals”. The “spontaneous alternation (Y-maze)” value with 5XFAD/Rubicon KO mice [3] (setting [7]) is “striking dose-dependent improvement”. The “spontaneous alternation (Y-maze), learning and memory” value with 5XFAD/Rubicon KO mice [3] (9 weeks, 20 mg/kg PO QD) was “restoration of learning and memory to near wild type control levels for most animals”. Besides, the IC50 in assay [4] (setting [8]) was 220 nM; in assay [4] (setting [9]), 280 nM; in assay [5] (setting [8]), over 10000 nM; in assay [5] (setting [9]), over 30000 nM; in assay [6] (Mus musculus, IL-1β, geometric mean, n = 3), 440 nM. Also, the “TNFα inhibition in cellular assay” value in assay [5] (specificity, in words) is listed as “lack of TNFα inhibition”. For the same compound, the “potency of NLRP3 inhibition in whole blood” value in assay [6] (in words) was “sub-micromolar potency”.

One may read the IC50 as the midpoint of a concentration-inhibition curve. A high value points to a need for much substance.
